In one test the target is T1, H1 receptor (Cavia porcellus, UniProt P31389).
T1 construct: guinea pig cerebromembranous protein; from tissue; host or cells: guinea pig cerebral (brain) membranes
Briefly: H1 receptor binding inhibition test ([^3 H]mepyramin, guinea pig cerebromembranous protein). The conditions noted are these: for Kd: read-out: H1 receptor, dissociation constant KD. Here is the method: 1) H1 Receptor Binding Inhibition Test
An ice-cooled phosphate buffer was added to terminate the reaction, followed by immediate filtration through a Wattman CF/C filter. The filter was washed twice with 20 ml aliquots of the ice-cooled buffer. The radioactivity of the residue was measured by a liquid scintillation counter. From a measurement value obtained without the addition of the test compound and measurements values obtained upon addition of the test compound at various concentrations, the dose-response of the inhibitory action of the test compound was measured and the 50% inhibitory concentration (IC50) was determined. Using the Cheng-Prusoff formula, a dissociation constant was calculated from the IC50. In a binding assay, 10^-4 M R(-)dimethindene was used for the measurement of a nonspecific binding.

For another test, the target named is T2, LTD4 receptor (Cavia porcellus, UniProt Q2NNR5).
T2 construct: guinea pig pulmomembranous protein; from tissue; host or cells: guinea pig lung membranes
T2 sequence (Q2NNR5 1-340): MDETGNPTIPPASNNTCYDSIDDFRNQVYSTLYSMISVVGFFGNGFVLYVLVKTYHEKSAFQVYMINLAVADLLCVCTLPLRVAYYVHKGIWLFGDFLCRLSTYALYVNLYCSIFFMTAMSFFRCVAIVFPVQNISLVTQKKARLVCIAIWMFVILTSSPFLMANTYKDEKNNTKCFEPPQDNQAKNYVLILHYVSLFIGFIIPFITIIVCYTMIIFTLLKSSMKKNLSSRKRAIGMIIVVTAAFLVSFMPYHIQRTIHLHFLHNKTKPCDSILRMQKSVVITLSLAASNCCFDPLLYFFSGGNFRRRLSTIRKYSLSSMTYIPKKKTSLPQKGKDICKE
Briefly: LTD4 receptor binding inhibition test ([^3 H]leukotriene D4, guinea pig pulmomembranous protein). The following applies: for Kd: read-out: LTD4 receptor, dissociation constant KD; for inhibition at 10 µM: read-out: LTD4 receptor (%), inhibition rate. The protocol:
2) LTD4 Receptor Binding Inhibition Test
An ice-cooled tris hydrochloride/sodium chloride buffer (10 mM/100 mM, pH 7.5) was added to terminate the reaction, followed by immediate filtration through a Wattman CF/C filter. The filter was washed twice with 20 ml aliguots of the ice-cooled buffer. The radioactivity of the residue was measured by a liquid scintillation counter. […] In a binding assay, 2 μM leukotriene D4 was used for the measurement of a nonspecific binding.

[1] abbreviates: 0.2 nM [^3 H]leukotriene D4, pH 7.5, 22° C., 30 minutes, calculated from IC50.
[2] abbreviates: 0.5 nM [^3 H]mepyramin, pH 7.5, 37° C., 30 minutes, calculated from IC50 with Cheng-Prusoff formula.
[3] abbreviates: a: 100 μM, read-out: H1 receptor (%), inhibition rate.

The values below come from patent publication US5885987A, “Phenylene derivatives” (Kowa Co., Ltd., priority 1996, dated 1999).

Like-named read-outs stand apart in the source and are kept apart here.

T1 sequence (P31389 whole entry): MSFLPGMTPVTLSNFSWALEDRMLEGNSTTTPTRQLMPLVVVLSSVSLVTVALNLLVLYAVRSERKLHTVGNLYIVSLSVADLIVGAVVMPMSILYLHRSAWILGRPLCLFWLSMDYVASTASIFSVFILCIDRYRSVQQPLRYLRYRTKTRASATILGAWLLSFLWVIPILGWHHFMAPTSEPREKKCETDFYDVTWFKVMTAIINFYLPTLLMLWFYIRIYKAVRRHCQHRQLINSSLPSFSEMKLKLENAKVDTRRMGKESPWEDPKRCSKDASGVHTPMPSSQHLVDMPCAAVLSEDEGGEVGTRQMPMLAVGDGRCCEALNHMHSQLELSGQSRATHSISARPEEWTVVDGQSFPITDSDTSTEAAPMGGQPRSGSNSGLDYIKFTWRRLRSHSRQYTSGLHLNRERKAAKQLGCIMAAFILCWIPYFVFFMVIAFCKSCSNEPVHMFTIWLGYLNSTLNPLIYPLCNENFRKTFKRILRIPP

On to “7-[3-(2-Quinolinylmethoxy)benzyloxy]-3,4-dihydro-2H-1,4-benzothiazin-3-one 1,1-dioxide [Example 77]”, for which the “H1 receptor (%), inhibition rate” value at H1 receptor (a: 100 μM) is listed as 30%. Moreover, at LTD4 receptor (setting [1]), the Kd (as a rule, the constant that tells how readily two partners part at equilibrium) is 129 nM. Consider “7-[3-(2-quinolinylmethoxy)benzyloxy]-2,3,4,5-tetrahydro-tetrazolo-[5,1-a][2]benzazepin [Example 87]”, for which the results for the dissociation constant (Kd) on H1 receptor (setting [2]) and on LTD4 receptor (setting [1]) were 67200 nM and 11.4 nM, respectively.

Take “7-[4-(2-quinolinylmethoxy)benzyloxy]-2,3,4,5-tetrahydro-tetrazolo-[5,1-a][2]benzazepin [Example 88]”: the dissociation constant (Kd) at H1 receptor (setting [2]) is 31100 nM. Further, on LTD4 receptor (b: 10 μM), the “LTD4 receptor (%), inhibition rate” value was 30%. `CN(Cc1cccc(OCc2ccc3ccccc3n2)c1)c1ccc2c(c1)SCC(=O)N2` [96(a), 7-[N-methyl-N-{3-(2-quinolinylmethoxy)benzyl}amino]-3,4-dihydro-2H-1,4-benzothiazin-3-one]: the inhibition (in general, the relative decrease from the control value, in per cent) at 10 µM at H1 receptor (b: 10 μM, read-out: H1 receptor (%), inhibition rate) came to 4%; on LTD4 receptor (b: 10 μM), 9%. `Cc1ccc(OCc2cccc(OCc3ccc4ccccc4n3)c2)c2cc(C#N)c(=O)[nH]c12` [Example 3, 3-Cyano-8-methyl-5-[3-(2-quinolinylmethoxy)benzyloxy]-1,2-dihydroquinolin-2-one]: the inhibition at 100 µM at H1 receptor (setting [3]) came out at 44%. The equilibrium dissociation constant (Kd) at LTD4 receptor turned out to be 523 nM. For `Cc1ccc(OCc2cccc(OCc3ccc4ccccc4n3)c2)c2c1NC(=O)CC2` [Example 5, 8-Methyl-5-[3-(2-quinolinylmethoxy)benzyloxy]-1,2,3,4-tetrahydroquinolin-2-one] the same measures were 57% and 316 nM.

For the molecule `O=C1CCc2ccc(OCc3cccc(OCc4ccc5ccccc5n4)c3)cc2N1` [Example 7], the inhibition at 100 µM on H1 receptor (setting [3]) came out at 46%. The Kd on LTD4 receptor turned out to be 209 nM. Regarding `O=C1CCc2cccc(OCc3cccc(OCc4ccc5ccccc5n4)c3)c2N1` [Example 8, 8-[3-(2-Quinolinylmethoxy)benzyloxy]-1,2,3,4-tetrahydroquinolin-2-one], the equilibrium dissociation constant (Kd) on H1 receptor was 145000 nM; on LTD4 receptor it was 322 nM. For `O=C1CCCc2cc(OCc3cccc(OCc4ccc5ccccc5n4)c3)ccc2N1` [Example 9, 7-[3-(2-Quinolinylmethoxy)benzyloxy]-2,3,4,5-tetrahydrobenz[b]azepin-2-one] the same measures were 47600 nM and 148 nM. As to `O=C1CCSc2cc(OCc3cccc(OCc4ccc5ccccc5n4)c3)ccc2N1` [Example 11, 8-[3-(2-Quinolinylmethoxy)benzyloxy]-2,3,4,5-tetrahydro-1,5-benzothiazepin-4-one], the inhibition at 100 µM at H1 receptor (setting [3]) turned out to be 47%. The Kd at LTD4 receptor came to 22 nM. Consider `O=C1Cc2c(cccc2OCc2cccc(OCc3ccc4ccccc4n3)c2)N1` [Example 12, 4-[3-(2-Quinolinylmethoxy)benzyloxy)-2,3-dihydro-1H-indol-2-one], for which, at H1 receptor (concentration not given), the “H1 receptor (%), inhibition rate” value was determined as 45%. The Kd on LTD4 receptor was 703 nM. On to `CC1(C)C(=O)Nc2ccc(OCc3cccc(OCc4ccc5ccccc5n4)c3)cc21` [Example 14, 3,3'-Dimethyl-5-[3-(2-quinolinylmethoxy)benzyloxy]-2,3-dihydro-1H-indol-2-one], for which the inhibition at 100 µM at H1 receptor (setting [3]) turned out to be 29%. In addition, at LTD4 receptor, the equilibrium dissociation constant (Kd) came out at 215 nM. On to `CCCCCCc1cc(OCc2cccc(OCc3ccc4ccccc4n3)c2)cc2c1C(C)(C)C(=O)N2` [Example 16, 3,3-Dimethyl-4-(n-hexyl)-6-[3-(2-quinolinylmethoxy)benzyloxy]-2,3-dihydro-1H-indol-2-one], for which the inhibition at 100 µM on H1 receptor (setting [3]) came out at 48%. Further, at LTD4 receptor, the dissociation constant Kd worked out at 2500 nM.

`CC1(C)C(=O)Nc2ccc(OCc3ccc(OCc4ccc5ccccc5n4)cc3)cc21` [Example 18, 3,3-dimethyl-5-[4-(2-quinolinylmethoxy)benzyloxy]-2,3-dihydro-1H-indol-2-one]: the Kd on H1 receptor was determined as 78700 nM; at LTD4 receptor, 1100 nM. For the molecule `Cc1ccc(OCc2ccc(OCc3ccc4ccccc4n3)cc2)c2c1NC(=O)CC2` [Example 21, 8-Methyl-5-[4-(2-quinolinylmethoxy)benzyloxy]-1,2,3,4-tetrahydroquinolin-2-one], on H1 receptor (setting [3]), the inhibition at 100 µM was 28%. On LTD4 receptor (b: 10 μM), the inhibition at 10 µM is 33%.

As to `O=C1CCc2cc(OCc3ccc(OCc4ccc5ccccc5n4)cc3)ccc2N1` [Example 22], the inhibition at 100 µM on H1 receptor (setting [3]) worked out at 45%. Also, the Kd on LTD4 receptor was 1240 nM. Regarding `O=C1CCc2ccc(OCc3ccc(OCc4ccc5ccccc5n4)cc3)cc2N1` [Example 23], the inhibition at 100 µM on H1 receptor (setting [3]) is 41%. Further, at LTD4 receptor, the Kd was 500 nM.

Consider `O=C1CCc2cccc(OCc3ccc(OCc4ccc5ccccc5n4)cc3)c2N1` [Example 24, 8-[4-(2-Quinolinylmethoxy)benzyloxy]-1,2,3,4-tetrahydroquinolin-2-one], for which the Kd on H1 receptor turned out to be 25800 nM; at LTD4 receptor it was 301 nM.

With `O=C1CCCc2cc(OCc3ccc(OCc4ccc5ccccc5n4)cc3)ccc2N1` [Example 25, 7-[4-(2-Quinolinylmethoxy)benzyloxy]-2,3,4,5-tetrahydro-1H-benzo[b]azepin-2-one], the figures for the equilibrium dissociation constant (Kd) at H1 receptor and on LTD4 receptor were 57800 nM and 129 nM, respectively. Take `Cc1ccc(OCc2ccc(OCc3ccc4ccccc4n3)cc2)c2c1NC(=O)C2(C)C` [Example 27, 4-[4-(2-Quniolinylmethoxy)benzyloxy]-3,3,7-trimethyl-2,3-dihydydro-1H-indol-2-one]: the inhibition at 100 µM on H1 receptor (setting [3]) came out at 38%. On LTD4 receptor, the Kd stood at 139 nM. On to `CC1(C)C(=O)Nc2cc(OCc3ccc(OCc4ccc5ccccc5n4)cc3)ccc21` [Example 28, 3,3-Dimethyl-6-[4-(2-quinolinylmethoxy)benzyloxy]-2,3-dihydro-1H-indol-2-one], for which the inhibition at 100 µM at H1 receptor (setting [3]) was 30%. For the same molecule, at LTD4 receptor, the equilibrium dissociation constant (Kd) stood at 1400 nM. For `CCCCCCc1cc(OCc2ccc(OCc3ccc4ccccc4n3)cc2)cc2c1C(C)(C)C(=O)N2` [Example 29, 3,3-Dimethyl-4-(n-hexyl)-6-(4-(2-quinolinylmethoxy)benzyloxy]-2,3-dihydro-1H-indol-2-one] the same measures were 34% and 3100 nM.

On to `O=C1CCc2ccc(OCc3cccc(OCc4ccc5ccc(Cl)cc5n4)c3)cc2N1` [Example 31, 7-[3-(7-chloro-2-quinolinylmethoxy)benzyloxy]-1,2,3,4-tetrahydroquinolin-2-one], for which the Kd was 19800 nM at H1 receptor and 304 nM on LTD4 receptor. For the molecule `O=C1CSc2cc(OCc3cccc(OCc4ccc5ccc(Cl)cc5n4)c3)ccc2N1` [Example 32, 7-[3-(7-chloro-2-quinolinylmethoxy)benzyloxy]-3,4-dihydro-2H-1,4-benzothiazin-3-one], the inhibition at 100 µM on H1 receptor (setting [3]) is 43%. At LTD4 receptor, the Kd was 109 nM.

`O=C1CCc2ccc(OCc3cccc(OCc4ncc5ccccc5n4)c3)cc2N1` [Example 34, 7-[3-(2-quinazolinylmethoxy)benzyloxy]-1,2,3,4-tetrahydroquinolin-2-one]: the dissociation constant Kd came out at 100000 nM on H1 receptor and 196 nM at LTD4 receptor. For `Cn1c(COc2cccc(COc3ccc4c(c3)SCC(=O)N4)c2)nc2ccccc21` [Example 36, 7-(3-(N-methylbenzimidazo1-2-yl-methoxy)benzyloxy]-3,4-dihydro-2H-1,4-benzothiazin-3-one] the same measures were 16200 nM and 135 nM.

As to `O=C1CSc2cc(OC(=O)c3ccc(OCc4ccc5ccccc5n4)cc3)ccc2N1` [Example 66, 7-[4-(2-Quinolinylmethoxy)benzoyloxy]-3 4-dihydro-2H-1,4-benzothiazin-3-one], the inhibition at 10 µM on LTD4 receptor (b: 10 μM) was 28%. Consider `O=C1CSc2cc(NC(=O)c3cccc(OCc4ccc5ccccc5n4)c3)ccc2N1` [Example 72, 7-[3-(2-Quinolinylmethoxy)benzoylamino]-3,4-dihydro-2H-1,4-benzothiazin-3-one], for which, at LTD4 receptor, the Kd was 46.2 nM. Take `O=C1CSc2cc(NC(=O)c3ccc(OCc4ccc5ccccc5n4)cc3)ccc2N1` [Example 73]: the inhibition at 10 µM at LTD4 receptor (b: 10 μM) was 20%. Regarding `O=C1CS(=O)(=O)c2cc(OCc3cccc(OCc4ccc5ccccc5n4)c3)ccc2N1` [Example 74, 7-[3-(2-quinolinylmethoxy)benzyloxy]-3,4-dihydro-2H-1,4-benzothiazin-3-one1,1-dioxide], the Kd on LTD4 receptor came to 235000 nM. Same read-out and setting: as for `O=C1CSc2cc(OCc3cccc(/C=C/c4ccc5ccc(Cl)cc5n4)c3)ccc2N1` [Example 81, trans-7-[3-[2-(7-chloroquinolin-2-yl)ethenyl]benzyloxy]-2H-3,4-dihydro-1,4-benzothiazin-3-one], the figure is 13 nM.
